Source: US4139632A, “Psychotropic 2-trifluoromethyl-10-[3-(3-hydroxy-pyrrolidino)-propyl]-phenothiazine compounds” (Eisai Co., Ltd., priority 1975, dated 1979)

Tests used:
Type in all cases: in vivo
Mouse [1] = test: Anti-writhing effect (analgetic activity); details: read-out: Anti-writhing effect, 50% effective amount (ED50)
Experimental: (§1) Measurement of pharmacological activities are conducted in accordance with the procedures described in the following literatures:
Proc. Soc. […] Biol, & Med.,

Mouse [2] = test: Inhibitory effect of spontaneous motor activity; details: read-out: Inhibitory effect of spontaneous motor activity, 50% effective amount (ED50)
Experimental: as §1
1) Svensson, T. H. et al

Mouse [3] = test: Anti-tremorine activity (anti-Parkinson activity); details: for ED50: read-out: Anti-tremorine activity, 50% effective amount (ED50)
Experimental: (§2) Measurement of pharmacological activities are conducted in accordance with the procedures described in the following literatures: […]

Mouse [4] = test: Anti-methanphethamine activity (neuroleptic activity); details: read-out: Anti-methanphethamine, 50% effective amount (ED50)
Experimental: as §2

Mouse [5] = test: Acute toxicity LD50, oral administration; details: compared with chlorpromazine and fluphenazine

Row | SMILES | ED50 (Mouse [1]; Mus musculus, po) [mg/kg] | ED50 (Mouse [2]; Mus musculus, po) [mg/kg] | ED50 (Mouse [3]; Mus musculus, po) [mg/kg] | ED50 (Mouse [4]; Mus musculus, po) [mg/kg] | ED50 (Mouse [1]; mouse, oral administration) [mg/kg] | ED50 (Mouse [2]; mouse, oral administration) [mg/kg] | acute toxicity (LD50) relative to chlorpromazine and fluphenazine (Mouse [5]) | central anticholinergic activity (Mouse [3]; concluded from table comparison) | ED50 (Mouse [3]; mouse, oral administration) [mg/kg] | ED50 (Mouse [4]; mouse, oral administration) [mg/kg]
1 | CN(C)CCCN1c2ccccc2Sc2ccc(Cl)cc21 [Chlorpromazine] | 9.4 | 13 | 2.3 | 5.6 |  |  |  |  |  | 
2 | Cl.OC1CCN(CCCN2c3ccccc3Sc3ccc(C(F)(F)F)cc32)C1 (stereo not drawn) [Compound A, 2-trifluoromethyl-10-[3-(3-hydroxy-pyrrolidino)-propyl]-phenothiazine hydrochloride] |  |  |  |  | 1 | 3.3 | far less than that of chlorpromazine and fluphenazine | has central anticholinergic activity | 3.6 | 0.9
3 | OCCN1CCN(CCCN2c3ccccc3Sc3ccc(C(F)(F)F)cc32)CC1 [Fluphenazine] |  |  |  |  | 2.5 to 10 | 2.1 |  |  | 12 | 0.5
4 | Cl.FC(F)(F)c1ccc2c(c1)N(CCCN1CCCC1)c1ccccc1S2 [Known Compound a, 2-trifluoromethyl-10-(3-pyrrolidino-propyl)-phenothiazine hydrochloride] |  |  |  |  | 4.1 | 3.8 |  |  | 4.3 | 1.9
